Measured values: the NIST ThermoML archive (doi:10.1021/je800110r)

Details: Liquid, Vibrating tube method

CCCCCCCCCC [decane]
Details	mass density [kg/m3]
333.15 K, 34442 kPa	727.7
333.15 K, 34445 kPa	727.8
333.16 K, 815 kPa	699.9
333.16 K, 842 kPa	699.9
333.16 K, 881 kPa	700
333.16 K, 941 kPa	700
333.16 K, 2806 kPa	701.9
333.16 K, 2881 kPa	702
333.16 K, 2921 kPa	701.9
333.16 K, 3005 kPa	702
333.16 K, 4814 kPa	703.9
333.16 K, 4927 kPa	703.9
333.16 K, 5007 kPa	704
333.16 K, 5592 kPa	704.7
333.16 K, 5608 kPa	704.7
333.16 K, 5623 kPa	704.7
333.16 K, 5704 kPa	704.7
333.16 K, 5748 kPa	704.8
333.16 K, 5756 kPa	704.7
333.16 K, 5775 kPa	704.7
333.16 K, 5795 kPa	704.8
333.16 K, 5811 kPa	704.9
333.16 K, 5830 kPa	704.8
333.16 K, 5852 kPa	704.8
333.16 K, 5874 kPa	704.9
333.16 K, 5896 kPa	704.9
333.16 K, 5917 kPa	705
333.16 K, 5934 kPa	704.9
333.16 K, 5956 kPa	704.9
333.16 K, 5973 kPa	705
333.16 K, 6001 kPa	704.9
333.16 K, 6018 kPa	705
333.16 K, 6045 kPa	704.9
333.16 K, 6069 kPa	705.1
333.16 K, 6092 kPa	705
333.16 K, 6116 kPa	705.1
333.16 K, 6643 kPa	705.5
333.16 K, 6667 kPa	705.5
333.16 K, 6688 kPa	705.6
333.16 K, 6713 kPa	705.6
333.16 K, 6738 kPa	705.6
333.16 K, 6763 kPa	705.7
333.16 K, 6796 kPa	705.7
333.16 K, 6822 kPa	705.8
333.16 K, 6844 kPa	705.8
333.16 K, 7378 kPa	706.3
333.16 K, 7414 kPa	706.2
333.16 K, 7450 kPa	706.4
333.16 K, 7482 kPa	706.3
333.16 K, 7512 kPa	706.3
333.16 K, 7550 kPa	706.4
333.16 K, 7575 kPa	706.4
333.16 K, 7610 kPa	706.5
333.16 K, 7628 kPa	706.3
333.16 K, 7651 kPa	706.4
333.16 K, 7667 kPa	706.6
333.16 K, 7693 kPa	706.5
333.16 K, 7720 kPa	706.6
333.16 K, 7744 kPa	706.6
333.16 K, 7771 kPa	706.7
333.16 K, 7795 kPa	706.6
333.16 K, 7812 kPa	706.5
333.16 K, 7830 kPa	706.6
333.16 K, 7853 kPa	706.7
333.16 K, 7871 kPa	706.8
333.16 K, 7897 kPa	706.8
333.16 K, 7918 kPa	706.7
333.16 K, 7939 kPa	706.8
333.16 K, 7960 kPa	706.7
333.16 K, 7987 kPa	706.8
333.16 K, 8006 kPa	706.9
333.16 K, 8033 kPa	706.9
333.16 K, 8049 kPa	706.9
333.16 K, 8068 kPa	707
333.16 K, 8410 kPa	707.1
333.16 K, 8437 kPa	707.2
333.16 K, 8464 kPa	707.2
333.16 K, 8484 kPa	707.2
333.16 K, 8592 kPa	707.4
333.16 K, 8666 kPa	707.4
333.16 K, 8688 kPa	707.6
333.16 K, 8718 kPa	707.4
333.16 K, 8769 kPa	707.5
333.16 K, 8949 kPa	707.7
333.16 K, 8971 kPa	707.7
333.16 K, 9005 kPa	707.7
333.16 K, 9029 kPa	707.7
333.16 K, 9051 kPa	707.7
333.16 K, 9073 kPa	707.8
333.16 K, 9099 kPa	707.9
333.16 K, 9121 kPa	707.7
333.16 K, 9143 kPa	707.9
333.16 K, 9169 kPa	707.8
333.16 K, 9191 kPa	707.9
333.16 K, 9214 kPa	707.9
333.16 K, 9234 kPa	708
333.16 K, 9254 kPa	707.9
333.16 K, 9280 kPa	707.9
333.16 K, 9303 kPa	708.1
333.16 K, 9330 kPa	708
333.16 K, 9521 kPa	708.1
333.16 K, 9549 kPa	708.2
333.16 K, 9737 kPa	708.4
333.16 K, 9763 kPa	708.4
333.16 K, 9789 kPa	708.4
333.16 K, 9818 kPa	708.4
333.16 K, 12216 kPa	710.6
333.16 K, 12245 kPa	710.6
333.16 K, 12280 kPa	710.7
333.16 K, 12305 kPa	710.7
333.16 K, 12351 kPa	710.7
333.16 K, 12386 kPa	710.7
333.16 K, 12427 kPa	710.8
333.16 K, 12458 kPa	710.8
333.16 K, 12492 kPa	710.8
333.16 K, 12528 kPa	710.8
333.16 K, 12561 kPa	710.9
333.16 K, 12601 kPa	711
333.16 K, 12638 kPa	710.9
333.16 K, 12670 kPa	711
333.16 K, 12704 kPa	711
333.16 K, 12735 kPa	711
333.16 K, 12766 kPa	711
333.16 K, 12792 kPa	711.1
333.16 K, 12824 kPa	711.1
333.16 K, 13106 kPa	711.4
333.16 K, 13133 kPa	711.4
333.16 K, 13377 kPa	711.5
333.16 K, 13399 kPa	711.4
333.16 K, 13418 kPa	711.7
333.16 K, 13441 kPa	711.6
333.16 K, 13459 kPa	711.6
333.16 K, 13476 kPa	711.7
333.16 K, 13493 kPa	711.7
333.16 K, 13510 kPa	711.7
333.16 K, 13525 kPa	711.7
333.16 K, 13537 kPa	711.6
333.16 K, 13554 kPa	711.7
333.16 K, 13566 kPa	711.8
333.16 K, 13581 kPa	711.8
333.16 K, 13900 kPa	711.9
333.16 K, 14258 kPa	712.3
333.16 K, 14275 kPa	712.3
333.16 K, 14293 kPa	712.4
333.16 K, 14310 kPa	712.3
333.16 K, 14334 kPa	712.3
333.16 K, 14348 kPa	712.4
333.16 K, 14369 kPa	712.4
333.16 K, 14389 kPa	712.4
333.16 K, 14403 kPa	712.4
333.16 K, 14421 kPa	712.5
333.16 K, 14436 kPa	712.4
333.16 K, 14457 kPa	712.6
333.16 K, 14470 kPa	712.5
333.16 K, 14484 kPa	712.6
333.16 K, 14501 kPa	712.6
333.16 K, 14514 kPa	712.5
333.16 K, 14528 kPa	712.6
333.16 K, 14543 kPa	712.4
333.16 K, 14559 kPa	712.6
333.16 K, 14581 kPa	712.6
333.16 K, 14601 kPa	712.6
333.16 K, 14623 kPa	712.6
333.16 K, 14640 kPa	712.6
333.16 K, 14660 kPa	712.7
333.16 K, 14678 kPa	712.6
333.16 K, 14696 kPa	712.7
333.16 K, 14711 kPa	712.7
333.16 K, 14728 kPa	712.8
333.16 K, 14750 kPa	712.8
333.16 K, 14770 kPa	712.8
333.16 K, 14785 kPa	712.7
333.16 K, 14808 kPa	712.8
333.16 K, 14828 kPa	712.8
333.16 K, 14846 kPa	712.8
333.16 K, 14864 kPa	712.9
333.16 K, 14881 kPa	712.7
333.16 K, 14984 kPa	712.9
333.16 K, 15187 kPa	713
333.16 K, 15232 kPa	713.1
333.16 K, 15248 kPa	713.1
333.16 K, 15291 kPa	713.1
333.16 K, 15313 kPa	713.2
333.16 K, 15331 kPa	713.3
333.16 K, 15356 kPa	713.2
333.16 K, 15370 kPa	713.2
333.16 K, 15519 kPa	713.4
333.16 K, 15581 kPa	713.3
333.16 K, 18702 kPa	716
333.16 K, 18825 kPa	715.9
333.16 K, 21785 kPa	718.5
333.16 K, 21820 kPa	718.6
333.16 K, 25349 kPa	721.2
333.16 K, 25383 kPa	721.2
333.16 K, 25434 kPa	721.3
333.16 K, 25480 kPa	721.3
333.16 K, 25520 kPa	721.3
333.16 K, 25560 kPa	721.3
333.16 K, 25612 kPa	721.4
333.16 K, 25653 kPa	721.5
333.16 K, 26114 kPa	721.7
333.16 K, 26176 kPa	721.8
333.16 K, 26222 kPa	721.8
333.16 K, 26260 kPa	721.9
333.16 K, 26304 kPa	721.8
333.16 K, 26342 kPa	721.9
333.16 K, 27466 kPa	722.8
333.16 K, 27509 kPa	722.8
333.16 K, 27558 kPa	722.8
333.16 K, 27603 kPa	722.9
333.16 K, 27660 kPa	722.9
333.16 K, 27703 kPa	722.9
333.16 K, 27755 kPa	722.9
333.16 K, 27812 kPa	723
333.16 K, 27849 kPa	723.1
333.16 K, 27894 kPa	723.1
333.16 K, 27945 kPa	723
333.16 K, 27985 kPa	723.2
333.16 K, 28031 kPa	723.2
333.16 K, 28077 kPa	723.1
333.16 K, 28117 kPa	723.2
333.16 K, 28185 kPa	723.3
333.16 K, 28218 kPa	723.2
333.16 K, 28262 kPa	723.3
333.16 K, 28293 kPa	723.4
333.16 K, 28324 kPa	723.5
333.16 K, 28354 kPa	723.3
333.16 K, 28395 kPa	723.5
333.16 K, 28436 kPa	723.4
333.16 K, 28472 kPa	723.5
333.16 K, 28508 kPa	723.5
333.16 K, 28555 kPa	723.6
333.16 K, 28586 kPa	723.5
333.16 K, 29016 kPa	723.9
333.16 K, 29059 kPa	724
333.16 K, 29107 kPa	724
333.16 K, 29157 kPa	724.1
333.16 K, 29189 kPa	724
333.16 K, 29233 kPa	724
333.16 K, 29260 kPa	724.2
333.16 K, 29300 kPa	724.2
333.16 K, 29339 kPa	724.2
333.16 K, 29378 kPa	724.2
333.16 K, 29411 kPa	724.2
333.16 K, 29456 kPa	724.2
333.16 K, 29495 kPa	724.1
333.16 K, 29541 kPa	724.3
333.16 K, 29575 kPa	724.4
333.16 K, 29625 kPa	724.4
333.16 K, 29666 kPa	724.3
333.16 K, 29700 kPa	724.3
333.16 K, 29730 kPa	724.6
333.16 K, 29759 kPa	724.5
333.16 K, 29794 kPa	724.6
333.17 K, 25689 kPa	721.5
333.17 K, 25730 kPa	721.5
333.17 K, 25766 kPa	721.6
333.17 K, 25801 kPa	721.5
333.17 K, 25849 kPa	721.7
333.17 K, 25908 kPa	721.7
333.17 K, 25950 kPa	721.7
333.17 K, 25992 kPa	721.7
333.17 K, 26034 kPa	721.7
333.17 K, 26071 kPa	721.8
333.17 K, 28623 kPa	723.6
333.17 K, 28670 kPa	723.7
333.17 K, 28702 kPa	723.6
333.17 K, 28729 kPa	723.8
333.17 K, 28761 kPa	723.8
333.17 K, 28807 kPa	723.7
333.17 K, 28849 kPa	723.8
333.17 K, 28887 kPa	723.7
333.17 K, 28930 kPa	724
333.17 K, 28974 kPa	723.9
